Measured values published in PMC4948680 (European journal of pharmaceutical sciences : official …, 2016).

Experiments:
in vivo = assay: in vivo; set-up: species or system SCID mice; conditions: SCID, mouse, iv, 10 pmol peptide, total radioactivity, %ID/g tissue
Protocol: (§1) The human epidermoid A431 cell line transfected to stably express the CCK2R (A431-CCK2R(+)) or devoid of CCK2R expression (A431-CCK2R(−)) used for tumour induction in this work was a gift from Prof. O. Boerman (Department of Nuclear Medicine, Radboud University Nijmegen Medical Centre, Nijmegen, The Netherlands) and Prof. L. Aloj (Istituto di Biostrutture e Bioimmagini, Consiglio Nazionale delle Ricerche, Naples, Italy) and cells were cultured as previously reported ([Aloj et al., 2004]). Suspensions of freshly harvested A431-CCK2R(±) cells (~150 μL, 1.6 × 10^7/1.4 × 10^7) in normal saline were subcutaneously injected in the flanks of mice.
(§2) Animals were euthanized in groups of four at 1 h, 4 h and 24 h pi; in a separate 4-h group animals received gelofusine (100 μL) together with the radioligand. […] Mice were dissected and samples of blood and tissues of interest as well as tumours were excised, weighted and counted for radioactivity in the gamma counter. Data was calculated as percent injected dose per gram tissue (%ID/g) with the aid of suitable standards of the injected dose and represent mean ± SD. In all above experiments, analysis of the solution used in the biodistribution experiment was conducted prior to and after completion of all animal injections.
(§3) Statistical analysis using the unpaired two-tailed Student’s t-test was performed to compare values between A431-CCK2R(+) and A431-CCK2R(−) tumours, as well as kidney, stomach and A431-CCK2R(+) tumour values between 4 h control and gelofusine-treated animal groups; values P < 0.05 were considered statistically significant (Table 2). The pharmacokinetic profile was determined by fitting an exponential curve through the organ time-activity data according to the least-squares method. The number of exponentials in the fitted curve was analysed according to the Aikake Information Criterion (AICc). All fitting was performed with Graphpad Prism version 5.

A431-CCK2R(±) xenografts = assay: in vivo; set-up: species or system SCID mice; conditions: SCID, mouse, iv, 10 pmol peptide, 4 h
Protocol: as §1, §2, §3

[1] = set-up: species or system mice
Protocol: (§4) Clearance kinetics in each organ was determined by exponential curve fitting. The time-integrated activity concentration (TIAC) was obtained by integration of this exponential curve folded with the decay curve of ^111In and ^177Lu.Mouse dosimetry was calculated for both ^177Lu and ^111In using the TIAC and the 25 g RADAR mouse absorbed dose rates per unit activity S for each source and target organ combination ([Keenan et al., 2010]; [Konijnenberg et al., 2014]).

[2] = set-up: species or system humans
Protocol: as §4
Extrapolation of biodistribution uptake data in mice to humans was based on two options for interspecies scaling ([Stabin, 2008]). 1. (%IA/organ)human=[(%IA/g)mouse×Mmouse(kg)]×(m(g)/M(kg))human with m the organ mass and M the total body weight of mouse or human and with %IA/gand%IA/organ the percentage of the injected activity concentration and per organ, respectively. The mouse organ TIACs are multiplied with the ratio of mouse and human body weights Mmouse/Mhuman to obtain the extrapolated human TIAC, and this multiplied with the organ mass (from the MIRD standard man phantom) yields the residence time in each source organ. 2. (%IA/organ)human=(%IA/organ)mouse=(%IA/g)mouse×mmouse in this method the uptake per organ is extrapolated one-to-one from mouse to man. The extrapolated human residence time is obtained by multiplying the mouse TIAC or each source organ with its mouse organ mass. […]

Question: Which results are given for `CSCC[C@H](NC(=O)[C@H](Cc1c[nH]c2ccccc12)NC(=O)CNC(=O)[C@H](Cc1ccc(O)cc1)NC(=O)[C@H](C)NC(=O)[C@@H](CCC(=O)O)NC(=O)[C@@H](CCC(=O)O)NC(=O)[C@@H](CCC(=O)O)NC(=O)[C@@H](CCC(=O)O)NC(=O)[C@@H](CCC(=O)O)NC(=O)[C@@H](CCC(=O)O)NC(=O)CN1CCN(CC(=O)O)CCN(CC(=O)O)CCN(CC(=O)O)CC1)C(=O)N[C@@H](CC(=O)O)C(=O)N[C@@H](Cc1ccccc1)C(N)=O` [^111In-CP04, ^111In-DOTA-(DGlu)6-Ala-Tyr-Gly-Trp-Met-Asp-Phe-NH2, metal not drawn]?
Answer: tissue uptake at 1 h (in vivo; Blood): 0.55 ± 0.17 %ID/g; tissue uptake at 4 h (in vivo; Blood): 0.02 ± 0.01 %ID/g; tissue uptake at 1 h (in vivo; Femur): 0.96 ± 0.46 %ID/g; tissue uptake at 4 h (in vivo; Femur): 0.3 ± 0.22 %ID/g; tissue uptake at 24 h (in vivo; Femur): 0.24 ± 0.09 %ID/g; tissue uptake at 1 h (in vivo; Heart): 0.24 ± 0.08 %ID/g; tissue uptake at 4 h (in vivo; Heart): 0.02 ± 0.01 %ID/g; tissue uptake at 24 h (in vivo; Heart): 0.02 %ID/g; tissue uptake at 1 h (in vivo; Intestines): 0.36 ± 0.13 %ID/g; tissue uptake at 4 h (in vivo; Intestines): 0.22 ± 0.08 %ID/g; tissue uptake at 24 h (in vivo; Intestines): 0.1 ± 0.04 %ID/g; tissue uptake at 1 h (in vivo; Kidneys): 5.53 ± 0.78 %ID/g; tissue uptake at 4 h (in vivo; Kidneys): 5.55 ± 0.94 %ID/g; tissue uptake at 24 h (in vivo; Kidneys): 3.29 ± 0.56 %ID/g; tissue uptake at 1 h (in vivo; Liver): 0.38 ± 0.12 %ID/g; tissue uptake at 24 h (in vivo; Liver): 0.01 ± 0.01 %ID/g; tissue uptake at 1 h (in vivo; Lung): 0.47 ± 0.13 %ID/g; tissue uptake at 4 h (in vivo; Lung): 0.04 ± 0.01 %ID/g; tissue uptake at 24 h (in vivo; Lung): 0.03 ± 0.01 %ID/g; tissue uptake at 4 h (in vivo; Muscle): 0.03 ± 0.02 %ID/g; tissue uptake at 24 h (in vivo; Muscle): 0.01 ± 0.01 %ID/g; tissue uptake at 1 h (in vivo; Pancreas): 0.23 ± 0.08 %ID/g; tissue uptake at 4 h (in vivo; Pancreas): 0.06 ± 0.01 %ID/g; tissue uptake at 24 h (in vivo; Pancreas): 0.05 ± 0.01 %ID/g; tissue uptake at 4 h (in vivo; Spleen): 0.04 ± 0.02 %ID/g; tissue uptake at 24 h (in vivo; Spleen): 0.05 ± 0.01 %ID/g; tissue uptake at 1 h (in vivo; Stomach): 2.6 ± 0.48 %ID/g; tissue uptake at 4 h (in vivo; Stomach): 2.09 ± 0.32 %ID/g; tissue uptake at 24 h (in vivo; Stomach): 1.58 ± 0.15 %ID/g; tissue uptake at 1 h (in vivo; Tumour(+) (A431-CCK2R(+))): 12.6 ± 1.73 %ID/g; tissue uptake at 4 h (in vivo; Tumour(+) (A431-CCK2R(+))): 9.24 ± 1.35 %ID/g; tissue uptake at 24 h (in vivo; Tumour(+) (A431-CCK2R(+))): 4.98 ± 0.56 %ID/g; tissue uptake at 1 h (in vivo; Tumour(–) (A431-CCK2R(–))): 1.07 ± 0.29 %ID/g; tissue uptake at 24 h (in vivo; Tumour(–) (A431-CCK2R(–))): 0.1 ± 0.02 %ID/g; %ID/g tissue, Intestines (A431-CCK2R(±) xenografts): 0.29 ± 0.18 %ID/g; %ID/g tissue, Kidneys (A431-CCK2R(±) xenografts): 6.52 %ID/g; %ID/g tissue, Liver (A431-CCK2R(±) xenografts): 0.12 ± 0.02 %ID/g; %ID/g tissue, Stomach (A431-CCK2R(±) xenografts): 1.63 ± 0.20 %ID/g; %ID/g tissue, Tumour(+) (A431-CCK2R(+)) (A431-CCK2R(±) xenografts): 8.49 %ID/g; Absorbed dose per injected activity, Bone [1]: 9 mGy/MBq; Absorbed dose per injected activity, Kidneys [1]: 56 mGy/MBq; Absorbed dose per injected activity, Large intestine [1]: 7 mGy/MBq; Absorbed dose per injected activity, Liver [1]: 3 mGy/MBq; Absorbed dose per injected activity, Lungs [1]: 3 mGy/MBq; Absorbed dose per injected activity, Pancreas [1]: 5 mGy/MBq; Absorbed dose per injected activity, Small intestine [1]: 7 mGy/MBq; Absorbed dose per injected activity, Spleen [1]: 3 mGy/MBq; Absorbed dose per injected activity, Stomach wall [1]: 15 mGy/MBq; Absorbed dose per injected activity, Total body [1]: 4 mGy/MBq; calculated absorbed dose for kidneys [2]: 27.5 mGy/220 MBq; expected whole body radiation dose (effective dose) [2]: 9.9 mSv
